Consider 4 molecules from ChEMBL document CHEMBL3868639, “Great Therapeutic Potential of Peptidylarginine Deiminase 4 (PAD4) Inhibitors: Treatment of Rheumatoid Arthritis, Epigenetic Tools, Regulation of Pluripotency in Stem Cells, and More” (ACS Med Chem Lett, 2017).

For the assay, the target named is Protein-arginine deiminase type-2 (Homo sapiens, UniProt Q9Y2J8). Nature of the assay: Inhibition of N-terminal 6His/FLAG-tagged recombinant human PAD2 (1 to 665 residues) expressed in baculovirus infected sf9 cells using N-a-benzoyl-L-arginine ethyl ester as substrate preincubated for 30 mins followed by substrate addition after 90 mins by DTT-based fluorescence assay.
Sequence of Protein-arginine deiminase type-2 (Q9Y2J8 whole entry, the tested form may be a part): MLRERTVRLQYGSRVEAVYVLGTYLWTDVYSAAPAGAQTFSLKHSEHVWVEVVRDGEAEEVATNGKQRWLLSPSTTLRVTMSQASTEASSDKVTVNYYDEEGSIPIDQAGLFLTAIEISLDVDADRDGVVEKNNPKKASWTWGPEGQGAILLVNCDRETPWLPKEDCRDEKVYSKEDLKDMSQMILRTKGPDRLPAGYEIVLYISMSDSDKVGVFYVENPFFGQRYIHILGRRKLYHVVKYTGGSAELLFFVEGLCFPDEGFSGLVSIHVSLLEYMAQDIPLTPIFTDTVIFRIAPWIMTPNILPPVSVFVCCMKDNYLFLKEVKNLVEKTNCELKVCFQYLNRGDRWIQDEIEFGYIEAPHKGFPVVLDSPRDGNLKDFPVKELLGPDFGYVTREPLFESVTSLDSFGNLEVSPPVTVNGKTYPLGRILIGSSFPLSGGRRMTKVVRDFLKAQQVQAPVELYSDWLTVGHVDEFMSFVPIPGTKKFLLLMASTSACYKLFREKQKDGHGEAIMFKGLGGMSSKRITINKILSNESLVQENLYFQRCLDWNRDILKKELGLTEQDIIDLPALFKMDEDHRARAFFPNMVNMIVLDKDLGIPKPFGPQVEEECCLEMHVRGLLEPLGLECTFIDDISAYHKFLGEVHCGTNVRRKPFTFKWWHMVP

By IC50 is commonly meant the midpoint of a concentration-inhibition curve. On to `COc1cc(C(=O)N2CCC[C@@H](N)C2)cc2nc(-c3cc4ccccc4n3CC(F)(F)F)n(C)c12`, for which the IC50 is 10 to 79.4 µM.

Regarding `Cn1c(-c2cc3ccccc3n2CC2CC2)nc2cc(C(=O)N3CCC[C@@H](N)C3)ccc21`, the IC50 was 10 to 79.4 µM.

As to `COc1cc(C(=O)N2CCC[C@@H](N)C2)cc2nc(-c3cc4ccccc4n3CC3CC3)n(C)c12`, the IC50 was 10 to 79.4 µM.

In the case of `COc1cc(C(=O)N2CC[C@@H](O)[C@@H](N)C2)cc2nc(-c3cc4ccccc4n3CC(F)(F)F)n(C)c12`, the IC50 is 10 to 79.4 µM.
